This is an account of results in patent publication US8980587B2, “Process for producing reveromycin A or a synthetic intermediate thereof, process for producing compounds containing a spiroketal ring and novel antineoplastics, fungicides and therapeutic agents for bone disorders” (RIKEN, priority 2010, dated 2015).

Test [1] has as its system tsFT210 cells (mouse breast cancer cells CDC2 temperature sensitive strain). Kind of test: Growth-inhibiting activity against animal cells (WST-8), tsFT210. It counts as cell-based. On the procedure: (§1) HL-60 cells (human acute promyelocytic leukemia cell line) and K562 cells (human chronic myeloid leukemia cell line) were maintained in a culture medium in which RPMI1640 medium (manufactured by Invitrogen) was added with 10% fetal bovine serum (manufactured by Nichirei), 0.5% penicillin/streptomycin solution (manufactured by Invitrogen) at 37° C. under a humidified culture of 5% CO2. tsFT210 cells (mouse breast cancer cells CDC2 temperature sensitive strain) were maintained in a culture medium in which RPMI1640 medium (manufactured by Invitrogen) was added with 5% calf serum (manufactured by Hyclone) and 0.5% penicillin/streptomycin solution at 32° C. under a humidified culture of 5% CO2.
(§2) HL-60 cells and K562 cells were seeded in a 96-well plate (manufactured by IWAKI) so as to be 1.5×10^4 cells/well/100 μl. tsFT210 cells were seeded in a 96-well plate so as to be 1.6×10^4 cell/well/100 μl. Each of the agents in Table 5 was added at 0.5% (v/v). HL-60 cells and K562 cells were maintained at 37° C. under a humidified culture of 5% CO2 and tsFT210 cells were maintain at 32° C. under a humidified culture of 5% CO2. Forty eight hours after addition of the agent, 10 μl of a reagent SF solution for counting live cells (WST-8 reagent, manufactured by Nakarai tesque) was added to each well. HL-60 cells and K562 cells were maintained at 37° C. under a humidified culture of 5% CO2 for 30 minutes and tsFT210 cells were maintain at 32° C. under a humidified culture of 5% CO2 for one hour. After the reaction, absorbance at 450 nm was measured using a microplate reader (manufactured by PerkinElmer) and a cell proliferation rate was determined from the measurement value.
In general terms: Tetrazolium dyes change colour on reduction, which living cells bring about.

The subject of test [2] is HL-60 cells (human acute promyelocytic leukemia cell line). Kind of test: Growth-inhibiting activity against animal cells (WST-8), HL-60. It counts as cell-based. The note with it: for IC50: Homo sapiens, read-out: HL60 IC50. As for the experimental part: as §1, §2
In test [3] the test system is Budding yeast (MLC30M strain). Kind of test: Growth-inhibiting activity against yeast. It counts as cell-based. The note with it: Saccharomyces cerevisiae, read-out: Yeast IC50. On the procedure:
Budding yeast (MLC30M strain) was precultured in a culture medium of 2% Polypeptone, 1% yeast extract, 2% glucose, 0.02% adenine, and 0.001% sodium dodecyl sulfate (SDS) at 30° C. Absorbance at 600 nm was measured, and yeast solution was prepared such that the absorbance is 0.05 and seeded 100 μl each in a 96-well plate. Each of the agents in Table 5 was added at 0.5% (v/v) and maintained at 30° C. Eighteen hours after addition of the agent, absorbance at 600 nm was measured using a microplate reader (manufactured by PerkinElmer) and a proliferation rate was determined from the measurement value.

Test [4] has as its system Escherichia coli (HO141 strain). Put plainly: Growth-inhibiting activity against Escherichia coli. The note with it: 6 hours, absorbance at 600 nm, read-out: E. coli IC50. It counts as cell-based. On the procedure:
Escherichia coli (HO141 strain) was precultured in culture medium of 0.5% Polypeptone, 0.5% Meat Extract, 0.3% NaCl, and 0.001% Sodium Dodecyl Sulfate (SDS) at 37° C. Absorbance at 600 nm was measured, and Escherichia coli solution was prepared such that the absorbance is 0.005 and seeded 100 μl each in a 96-well plate. Each of the agents in Table 5 was added at 0.5% (v/v) and maintained at 37° C. Six hours after addition of the agent, absorbance at 600 nm was measured using a microplate reader (manufactured by PerkinElmer) and a proliferation rate was determined from the measurement value.

The subject of test [5] is K562 cells (human chronic myeloid leukemia cell line). Kind of test: Growth-inhibiting activity against animal cells (WST-8), K562. Type of test: cell-based. As for the experimental part:
as §1, §2

Test [6] deals with T1, Isoleucyl tRNA synthetase (Homo sapiens, UniProt P41252).
T1 construct: 10 μg protein (HT1080 cell lysate); endogenous in cells; host or cells: HT1080 cell lysate
T1 sequence (P41252 1-1262): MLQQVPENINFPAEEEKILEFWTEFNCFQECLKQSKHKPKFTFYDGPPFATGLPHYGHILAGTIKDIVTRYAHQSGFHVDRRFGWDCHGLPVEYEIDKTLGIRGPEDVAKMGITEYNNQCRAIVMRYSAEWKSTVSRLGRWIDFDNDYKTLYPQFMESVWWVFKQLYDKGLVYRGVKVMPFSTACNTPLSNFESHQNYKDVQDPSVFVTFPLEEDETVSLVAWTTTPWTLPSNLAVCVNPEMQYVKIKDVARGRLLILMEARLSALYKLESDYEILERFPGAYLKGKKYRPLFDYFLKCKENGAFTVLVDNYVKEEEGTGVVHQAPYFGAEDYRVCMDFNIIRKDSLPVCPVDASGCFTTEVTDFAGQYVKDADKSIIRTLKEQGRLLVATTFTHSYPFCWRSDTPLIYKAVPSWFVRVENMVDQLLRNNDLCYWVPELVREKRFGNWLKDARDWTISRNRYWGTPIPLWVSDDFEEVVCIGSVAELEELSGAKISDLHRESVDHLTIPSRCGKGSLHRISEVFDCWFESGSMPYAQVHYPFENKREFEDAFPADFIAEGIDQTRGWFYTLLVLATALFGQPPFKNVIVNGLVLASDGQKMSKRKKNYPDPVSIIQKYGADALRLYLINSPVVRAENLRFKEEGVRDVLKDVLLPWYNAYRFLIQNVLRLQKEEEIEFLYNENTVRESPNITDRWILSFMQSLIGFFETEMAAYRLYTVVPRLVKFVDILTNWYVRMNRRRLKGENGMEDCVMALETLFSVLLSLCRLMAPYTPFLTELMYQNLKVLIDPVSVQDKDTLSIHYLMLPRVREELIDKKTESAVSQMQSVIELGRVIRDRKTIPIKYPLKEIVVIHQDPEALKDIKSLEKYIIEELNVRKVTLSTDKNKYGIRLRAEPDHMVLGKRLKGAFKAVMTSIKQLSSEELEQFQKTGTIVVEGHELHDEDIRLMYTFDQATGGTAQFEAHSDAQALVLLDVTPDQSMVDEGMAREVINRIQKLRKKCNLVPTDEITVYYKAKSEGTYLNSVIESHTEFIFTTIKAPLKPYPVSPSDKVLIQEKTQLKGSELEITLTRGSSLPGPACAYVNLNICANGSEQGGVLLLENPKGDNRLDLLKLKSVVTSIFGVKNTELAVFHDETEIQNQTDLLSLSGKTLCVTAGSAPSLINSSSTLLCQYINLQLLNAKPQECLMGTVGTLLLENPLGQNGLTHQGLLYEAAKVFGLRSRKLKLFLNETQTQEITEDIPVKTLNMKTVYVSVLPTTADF
Kind of test: Inhibitory activity against isoleucyl tRNA synthetase. Type of test: biochemical. To be noted: HT1080 cell lysate, [3H]isoleucine, 25° C., 20 minutes; read-out: IRS IC50 (converted). On the procedure: To a solution for enzymatic reaction [20 mM imidazole, pH 7.5, 75 mM MgCl2, 0.5 mM DTT, 1 U/ml tRNA (E. coli origin, manufactured by Sigma), 3 mM ATP, 1 μM isoleucine, 10 μCi/ml [^3H]isoleucine (manufactured by GE Healthcare), 10 μg protein (HT1080 cell lysate)], each of the agents in Table 5 was added at 1% (v/v) so as to attain a total amount of 100 μl and a reaction was carried out at 25° C. for 20 minutes. One mg/ml BSA solution (400 μl) and 10% TCA solution (500 μl) were then added thereto to terminate the reaction and left to stand at 4° C. overnight. A precipitate obtained by a centrifugal operation was transferred onto GF-C filter (manufactured by Whatman), washed three times with 5% TCA solution, followed by drying the filter. Two milliliters of aquasol-2 (manufactured by PerkinElmer) and the filter were placed in a vial and vigorously stirred, and then the amount of [^3H]isoleucine was measured by a liquid scintillation counter (manufactured by Beckman) to determine a rate of enzyme activity.

Setting [7] is: tsFT210 cells, 32° C., 48 hours after addition of the agent, WST-8, read-out: tsFT210 IC50.
Setting [8] is: HL-60 cells, 48 hours after addition of the agent, WST-8.
Where [9] appears, read: MLC30M strain, 18 hours, absorbance at 600 nm.
[10] abbreviates: K562 cells, 48 hours after addition of the agent, WST-8, read-out: K562 IC50.
[11] abbreviates: tsFT210, 48 h, read-out: tsFT210 IC50.
Where [12] appears, read: K562, 48 h, read-out: K562 IC50.

Values after ≈ are worked out from the molar mass of the structure shown. Like-named read-outs stand apart in the source and are kept apart here.

Regarding `CCCCC(CCC(O)CCC(C)C(O)C/C=C(C)/C=C/C(O)C(C)/C=C/C(=O)O)C(O)/C=C/C(C)=C/CC(O)CC` (stereo not drawn) [RM-A1a], the IC50 (in general, the concentration at which inhibition is half-maximal) in test [1] (setting [7]) is above 30 mg/L; in test [2] (setting [8]), 20.9 mg/L (≈ 35.3 µM); in test [3] (setting [9]), above 50 mg/L; in test [4] it was above 50 mg/L; in test [5] (setting [10]), above 30 mg/L.
Turning to `CCCCC1CCC(CCC(C)C(O)C/C=C(C)/C=C/C(O)C(C)/C=C/C(=O)O)OC1/C=C/C(C)=C/CC(O)CC` (stereo not drawn) [RM-A1b], the half-inhibitory concentration (IC50) in test [1] (setting [7]) is 17.4 mg/L (≈ 30.3 µM); in test [2] (setting [8]), 7.4 mg/L (≈ 12.9 µM); in test [3] (setting [9]), above 50 mg/L; in test [4] it was 31.9 mg/L (≈ 55.5 µM); in test [5] (setting [10]), 21.1 mg/L (≈ 36.7 µM).
Turning to `CCCCC1CCC2(CCC(C)C(C/C=C(C)/C=C/C(O)C(C)/C=C/C(=O)O)O2)OC1/C=C/C(C)=C/CC(O)CC` (stereo not drawn) [RM-A1c], the IC50 was 6.4 mg/L (≈ 11.2 µM) in test [1] (setting [11]); 6.3 mg/L (≈ 11 µM) in test [2] (HL-60, 48 h); above 50 mg/L in test [3] (18 h); 16.8 µM in test [6]; above 50 mg/L in test [4]; 3.4 mg/L (≈ 5.94 µM) in test [5] (setting [12]).
On to `CCCCC(CCC(O)CCC(C)C(O)C/C=C(C)/C=C/C(O)C(C)/C=C/C(=O)O)C(O)/C=C/C(C)=C/C(=O)O` (stereo not drawn) [RM-A1e], for which the IC50 in test [1] (setting [7]) was above 30 mg/L; in test [2] (setting [8]), above 30 mg/L; in test [3] (setting [9]), 48.2 mg/L (≈ 85.3 µM); in test [4] it was above 50 mg/L; in test [5] (setting [10]), above 30 mg/L.
For `CCCCC(CCC(O)CCC(C)C(O)C/C=C(C)/C=C/C(O)C(C)/C=C/C(=O)O)C(O)C/C=C(C)/C=C/C(=O)CC` (stereo not drawn) [RM-A2b], the IC50 in test [1] (setting [7]) was above 30 mg/L; in test [2] (setting [8]), above 30 mg/L; in test [3] (setting [9]), above 50 mg/L; in test [4], above 50 mg/L; in test [5] (setting [10]), above 30 mg/L.
For the molecule `CCCCC1CCC2(CCC(C)C(C/C=C(C)/C=C/C(O)C(C)/C=C/C(=O)O)O2)OC1/C=C/C(C)=C/CO` (stereo not drawn) [RM-A6a], the IC50 in test [1] (setting [11]) amounted to 6.8 mg/L (≈ 12.8 µM); in test [2] (HL-60, 48 h), 7 mg/L (≈ 13.2 µM); in test [3] (18 h), 31.5 mg/L (≈ 59.4 µM); in test [4], 24.6 mg/L (≈ 46.3 µM); in test [5] (setting [12]) it was 14.8 mg/L (≈ 27.9 µM).
In the same order, the values of `CCCCC1CCC2(CCC(C)C(C/C=C(C)/C=C/C(O)C(C)/C=C/C(=O)O)O2)OC1/C=C/C(C)=C/COC(=O)CC` (stereo not drawn) [RM-A8a] are 22.3 mg/L (≈ 38 µM), 18 mg/L (≈ 30.7 µM), above 50 mg/L, above 50 mg/L and 18.5 mg/L (≈ 31.5 µM).
In the same order, the values of `CCCC[C@@]1(OC(=O)CCC(=O)O)CC[C@]2(CC[C@H](C)[C@@H](C/C=C(C)/C=C/[C@H](O)[C@@H](C)/C=C/C(=O)O)O2)O[C@H]1/C=C/C(C)=C/CO` [RM-A9a] are 24.6 mg/L (≈ 38 µM), 21 mg/L (≈ 32.5 µM), 26.4 mg/L (≈ 40.8 µM), above 50 mg/L and 22.3 mg/L (≈ 34.5 µM).
As to `CCCC[C@H]1CC[C@]2(CC[C@H](C)[C@@H](C/C=C(C)/C=C/[C@H](O)[C@@H](C)/C=C/C(=O)OC)O2)O[C@H]1/C=C/C(C)=C/C(=O)O` [RM-T methyl-ester], the IC50 in test [1] (setting [11]) is 8.2 mg/L (≈ 14.7 µM); in test [2] (HL-60, 48 h) it was 0.9 mg/L (≈ 1.61 µM); in test [3] (18 h), above 50 mg/L; in test [4], above 50 mg/L; in test [5] (setting [12]), 2.5 mg/L (≈ 4.47 µM). For the same molecule, the “cancer cell growth-inhibiting activity (in words)” value in test [2] (summary of Table 5 (HL60, K562, tsFT210), RM-T as compared with RM-A) is on record as “high”.
Consider `CC(/C=C/[C@H](O)[C@@H](C)/C=C/C(=O)O)=C\C[C@H]1O[C@@]2(CC[C@H](C)[C@H](/C=C/C(C)=C/C(=O)O)O2)CC[C@@H]1C` [SF-A, spirofungin A, reference compound], for which the IC50 in test [1] (setting [7]) was above 30 mg/L; in test [2] (setting [8]), 1.2 mg/L (≈ 2.39 µM); in test [3] (setting [9]) it was 0.3 mg/L (≈ 0.597 µM); in test [4], above 50 mg/L; in test [5] (setting [10]), 3.4 mg/L (≈ 6.76 µM).
In the same order, the values of `CC(/C=C/[C@H](O)[C@@H](C)/C=C/C(=O)O)=C\C[C@H]1O[C@]2(CC[C@H](C)[C@H](/C=C/C(C)=C/C(=O)O)O2)CC[C@@H]1C` [SF-B, spirofungin B, reference compound] are above 30 mg/L, above 30 mg/L, 4 mg/L (≈ 7.96 µM), above 50 mg/L and above 30 mg/L.
